# Assay results taken from ChEMBL document CHEMBL5113541, “Design, Synthesis, and Monoamine Oxidase B Selective Inhibitory Activity of N-Arylated Heliamine Analogues” (ACS Med Chem Lett, 2022).
# Columns and labels:
# [1] = Lipophilicity, log D of the compound at pH 7.4; type: physicochemical; details: buffer
# [2] = Metabolic stability in human liver microsome assessed as compound remaining at 500 uM measured at 60 mins by LC-MS/MS method; type: ADME; details: liver microsomes, read-out: Stability
# [3] = Metabolic stability in human liver microsome assessed as compound remaining at 500 uM measured at 10 mins by LC-MS/MS method; type: ADME; details: liver microsomes, read-out: Stability
# [4] = Metabolic stability in mouse liver microsome assessed as compound remaining at 500 uM measured at 10 mins by LC-MS/MS method; type: ADME; details: liver microsomes, read-out: Stability
# [5] = target: T1, MAO-B (amine oxidase [flavin-containing] B) (Homo sapiens, UniProt P27338); test: Inhibition of human MAO-B assessed as residual activity at 10 uM relative to control; details: read-out: Activity
# T1 sequence (P27338 whole entry): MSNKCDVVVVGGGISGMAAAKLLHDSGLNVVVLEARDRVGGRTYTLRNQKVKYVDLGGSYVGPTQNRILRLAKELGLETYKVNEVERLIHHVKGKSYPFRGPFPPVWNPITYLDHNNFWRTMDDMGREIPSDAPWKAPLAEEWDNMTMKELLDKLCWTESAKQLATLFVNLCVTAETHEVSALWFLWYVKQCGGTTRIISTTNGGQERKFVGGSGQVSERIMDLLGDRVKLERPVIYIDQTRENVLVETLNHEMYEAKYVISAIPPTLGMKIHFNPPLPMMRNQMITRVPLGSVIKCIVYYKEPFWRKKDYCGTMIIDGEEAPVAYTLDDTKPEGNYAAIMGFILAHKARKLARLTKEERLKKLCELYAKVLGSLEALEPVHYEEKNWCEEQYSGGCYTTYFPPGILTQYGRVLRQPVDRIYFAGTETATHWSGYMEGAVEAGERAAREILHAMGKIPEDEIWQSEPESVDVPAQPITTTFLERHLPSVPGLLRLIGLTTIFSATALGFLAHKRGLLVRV
# [6] = Apparent permeability of the compound in human Caco-2 cells at 25 uM measured after 2 hrs by LC-MS/MS analysis; type: ADME, cell-based
# [7] = Solubility of compound in PBS at pH 7.0 at 100 uM measured for 20 mins by LC-MS/MS analysis; type: physicochemical
# [8] = Metabolic stability in mouse liver microsome assessed as compound remaining at 500 uM measured at 60 mins by LC-MS/MS method; type: ADME; details: liver microsomes, read-out: Stability
# [9] = target: T2, Amine oxidase [flavin-containing] A (Mus musculus, UniProt Q64133); test: Inhibition of mouse MAO-A
# T2 sequence (Q64133 whole entry): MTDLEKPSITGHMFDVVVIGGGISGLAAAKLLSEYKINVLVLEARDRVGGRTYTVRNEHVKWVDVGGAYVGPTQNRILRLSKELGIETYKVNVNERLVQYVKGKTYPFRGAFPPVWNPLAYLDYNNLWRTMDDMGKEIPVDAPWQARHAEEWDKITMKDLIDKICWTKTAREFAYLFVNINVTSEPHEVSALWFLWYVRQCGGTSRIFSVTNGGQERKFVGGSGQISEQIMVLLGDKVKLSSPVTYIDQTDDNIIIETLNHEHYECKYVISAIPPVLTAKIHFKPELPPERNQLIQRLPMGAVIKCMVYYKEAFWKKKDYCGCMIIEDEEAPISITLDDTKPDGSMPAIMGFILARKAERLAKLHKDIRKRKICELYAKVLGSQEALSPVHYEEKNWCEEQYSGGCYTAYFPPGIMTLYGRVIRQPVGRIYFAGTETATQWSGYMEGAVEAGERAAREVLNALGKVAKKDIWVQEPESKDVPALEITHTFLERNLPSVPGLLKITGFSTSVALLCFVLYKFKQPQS
# [10] = target: T3, Amine oxidase [flavin-containing] B (Mus musculus, UniProt Q8BW75); test: Inhibition of mouse MAO-B
# T3 sequence (Q8BW75 whole entry): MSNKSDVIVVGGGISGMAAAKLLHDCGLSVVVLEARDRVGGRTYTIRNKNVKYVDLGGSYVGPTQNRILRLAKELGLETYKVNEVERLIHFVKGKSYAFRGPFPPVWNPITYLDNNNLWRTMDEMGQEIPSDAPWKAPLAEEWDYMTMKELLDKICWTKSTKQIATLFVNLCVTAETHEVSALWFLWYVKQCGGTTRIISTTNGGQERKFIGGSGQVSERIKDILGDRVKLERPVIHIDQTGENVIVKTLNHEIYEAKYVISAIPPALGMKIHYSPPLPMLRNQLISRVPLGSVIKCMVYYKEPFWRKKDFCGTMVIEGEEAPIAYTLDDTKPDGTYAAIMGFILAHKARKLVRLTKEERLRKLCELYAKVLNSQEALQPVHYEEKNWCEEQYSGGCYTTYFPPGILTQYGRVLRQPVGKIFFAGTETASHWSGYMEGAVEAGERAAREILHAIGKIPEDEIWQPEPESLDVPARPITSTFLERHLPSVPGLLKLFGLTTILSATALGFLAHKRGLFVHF
# SH-SY5Y = test: Cytotoxicity against human SH-SY5Y cells assessed as inhibition of cell viability at 10 uM after 24 hrs by MTS assay relative to control; type: functional
# [11] = target: T4, Amine oxidase [flavin-containing] B (Homo sapiens, UniProt P27338); test: Inhibition of human MAO-B measure after 1 hr by microplate reader analysis
# T4 sequence (P27338 whole entry): T1 sequence (P27338 whole entry)
# [12] = target: T5, Amine oxidase [flavin-containing] A (Homo sapiens, UniProt P21397); test: Inhibition of human MAO-A measure after 1 hr by microplate reader analysis
# T5 sequence (P21397 whole entry): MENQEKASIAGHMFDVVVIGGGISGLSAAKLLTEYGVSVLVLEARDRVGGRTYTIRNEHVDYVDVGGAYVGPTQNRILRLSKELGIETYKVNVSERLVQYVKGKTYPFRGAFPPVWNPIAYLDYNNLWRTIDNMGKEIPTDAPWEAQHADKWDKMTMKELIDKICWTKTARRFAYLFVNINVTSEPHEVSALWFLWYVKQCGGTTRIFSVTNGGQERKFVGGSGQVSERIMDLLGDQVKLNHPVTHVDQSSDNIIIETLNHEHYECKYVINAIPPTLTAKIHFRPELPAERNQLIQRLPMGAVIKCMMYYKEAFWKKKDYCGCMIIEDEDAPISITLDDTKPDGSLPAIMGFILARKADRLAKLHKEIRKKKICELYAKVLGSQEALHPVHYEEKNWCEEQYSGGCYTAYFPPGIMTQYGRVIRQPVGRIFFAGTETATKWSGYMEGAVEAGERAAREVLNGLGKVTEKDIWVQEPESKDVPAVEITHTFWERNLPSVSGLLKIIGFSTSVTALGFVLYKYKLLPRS
# Rattus norvegicus = species: Rattus norvegicus; test: Inhibition of rat brain stem MAO at 2 mM using serotonin as substrate incubated for 30 mins by fluorometric analysis relative to control; type: tissue-based; details: Brainstem
logD [1],remaining at 1 h [2] [%],remaining at 10 min [3] [%],remaining at 10 min [4] [%],activity at 10 µM [5] [%],"Papp at 2 h, 25 µM [6] [nm/s]","solubility at 20 min, 100 µM [7] [µM]",remaining at 1 h [8] [%],IC50 [11] [µM],IC50 [12] [µM],Structure (SMILES),IC50 [9] [µM],IC50 [10] [µM],Activity (SH-SY5Y) [%],inhibition (Rattus norvegicus) [%]
2.5,88.4,91.8,91.6,97,812,≥ 95,91.8,,,COc1cc2c(cc1OC)CN(c1ccc(C(=O)O)cc1)CC2,,,,
3.4,78.4,91.3,83.4,,344,89.8,33.8,,,COc1cc2c(cc1OC)C(C)N(c1ccc(CO)cc1)CC2 (stereo unspecified),,,,
4.8,23.2,71.1,1.2,,83,7.6,0.3,,,COc1cc2c(cc1OC)C(C)N(c1ccc(F)cc1)CC2 (stereo unspecified),,,,

# Continued, molecule first:
Structure (SMILES),logD [1],remaining at 1 h [2] [%],remaining at 10 min [3] [%],remaining at 10 min [4] [%],activity at 10 µM [5] [%],"Papp at 2 h, 25 µM [6] [nm/s]","solubility at 20 min, 100 µM [7] [µM]",remaining at 1 h [8] [%],IC50 [11] [µM],IC50 [12] [µM],IC50 [9] [µM],IC50 [10] [µM],Activity (SH-SY5Y) [%],inhibition (Rattus norvegicus) [%]
COc1cc2c(cc1OC)CN(c1cccnc1)CC2,3.7,15.5,66.9,9.5,86,395,78.9,0.2,,,,,,
COc1cc2c(cc1OC)CNCC2,,,,,96,,,,,,> 100,> 1000,,
COc1cc2c(cc1OC)CN(c1ccc(C=O)cc1)CC2,3.7,9.2,61,12.6,14,28,6.6,0.4,1.55,> 100,,,99,
COc1cc2c(cc1OC)CN(c1cccc(O)c1)CC2,3.2,72.1,94.7,22.5,107,437,89.6,0.5,,,,,,
COc1cc2c(cc1OC)CN(c1ccccn1)CC2,3.7,17.7,70.8,9.9,89,388,0.8,0.2,,,,,,
COc1cc2c(cc1OC)[C@@H](C)NCC2,,,,,,,,,,,,,,48
